Assay results from article PMC7799360, “Reprogramming immunosuppressive myeloid cells facilitates immunotherapy for colorectal cancer” (EMBO Molecular Medicine, 2020).

Columns and labels:
human EP3 = human EP3 (Homo sapiens, UniProt P43115); assay: PGE2-induced calcium flux assay in CHO-Gα16 cells; assay type: cell-based
ADRB2 = target: T1, ADRB2 (Homo sapiens, UniProt P07550); assay: GPCR calcium flux assay; assay type: cell-based
T1 construct: Pharmaron (Beijing, China) performed the assay

CHRM3 = target: T2, CHRM3 (Homo sapiens, UniProt P20309); assay: GPCR calcium flux assay; assay type: cell-based
T2 construct: Pharmaron (Beijing, China), contract laboratory
T2 sequence (P20309 whole entry, species assumed): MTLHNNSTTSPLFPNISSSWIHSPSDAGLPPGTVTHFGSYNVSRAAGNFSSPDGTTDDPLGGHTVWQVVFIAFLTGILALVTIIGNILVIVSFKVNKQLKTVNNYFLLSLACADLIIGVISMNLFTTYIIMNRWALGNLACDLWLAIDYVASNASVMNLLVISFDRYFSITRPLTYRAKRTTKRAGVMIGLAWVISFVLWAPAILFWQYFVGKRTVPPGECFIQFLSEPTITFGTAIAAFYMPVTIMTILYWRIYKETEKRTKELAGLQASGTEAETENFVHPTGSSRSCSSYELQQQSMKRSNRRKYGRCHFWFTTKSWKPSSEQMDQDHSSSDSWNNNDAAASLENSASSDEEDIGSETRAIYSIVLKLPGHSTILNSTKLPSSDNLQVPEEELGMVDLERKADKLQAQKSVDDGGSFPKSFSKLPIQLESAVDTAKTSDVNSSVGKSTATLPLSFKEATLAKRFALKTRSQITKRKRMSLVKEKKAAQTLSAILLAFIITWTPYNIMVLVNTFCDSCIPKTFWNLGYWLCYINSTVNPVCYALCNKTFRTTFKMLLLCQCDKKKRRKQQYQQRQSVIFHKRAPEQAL

HRH1 = target: T3, HRH1 (Homo sapiens, UniProt P35367); assay: GPCR calcium flux assay; assay type: cell-based
T3 construct: Pharmaron (Beijing, China), contract laboratory
T3 sequence (P35367 whole entry, species assumed): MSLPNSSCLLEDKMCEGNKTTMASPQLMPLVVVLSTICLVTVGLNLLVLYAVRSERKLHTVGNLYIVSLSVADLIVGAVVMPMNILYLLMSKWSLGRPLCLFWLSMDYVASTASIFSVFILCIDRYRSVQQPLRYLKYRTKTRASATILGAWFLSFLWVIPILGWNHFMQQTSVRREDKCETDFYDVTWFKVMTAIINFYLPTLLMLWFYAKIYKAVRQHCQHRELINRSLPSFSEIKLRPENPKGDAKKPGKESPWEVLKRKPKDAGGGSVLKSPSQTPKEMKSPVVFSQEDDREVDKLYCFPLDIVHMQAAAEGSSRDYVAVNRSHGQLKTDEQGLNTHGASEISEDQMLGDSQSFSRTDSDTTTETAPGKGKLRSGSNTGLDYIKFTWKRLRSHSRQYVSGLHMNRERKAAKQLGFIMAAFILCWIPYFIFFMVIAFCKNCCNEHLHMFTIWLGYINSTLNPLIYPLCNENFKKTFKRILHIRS

OPRM1 = target: T4, OPRM1 (Homo sapiens, UniProt P35372); assay: GPCR calcium flux assay; assay type: cell-based
T4 construct: Pharmaron (Beijing, China), contract laboratory
T4 sequence (P35372 whole entry, species assumed): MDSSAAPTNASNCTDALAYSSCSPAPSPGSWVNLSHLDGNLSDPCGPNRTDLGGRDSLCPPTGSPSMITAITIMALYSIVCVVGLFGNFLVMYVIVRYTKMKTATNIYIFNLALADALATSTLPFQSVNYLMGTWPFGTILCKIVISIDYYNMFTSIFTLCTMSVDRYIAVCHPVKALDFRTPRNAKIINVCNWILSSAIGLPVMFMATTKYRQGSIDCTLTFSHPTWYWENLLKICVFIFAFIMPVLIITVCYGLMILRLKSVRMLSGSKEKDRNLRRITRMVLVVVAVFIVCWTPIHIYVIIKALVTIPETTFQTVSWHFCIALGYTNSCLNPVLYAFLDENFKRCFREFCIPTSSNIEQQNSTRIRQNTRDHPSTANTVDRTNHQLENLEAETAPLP

Pan02 tumors = assay: Pan02 pancreatic cancer model in C57BL/6 mice; assay type: in vivo, mouse; settings: Pan02, C57BL/6 mice, 75 mg/kg p.o. daily
Protocol: Syngeneic mouse tumor‐bearing models were established as described previously (Tan et al., 2018). Tumor cells (5 × 10^5 ‐ 2 × 10^6) were suspended in 100 μl PBS and implanted subcutaneously into the flank of mice. Mice were randomized into different treatment groups when tumor volumes reached 100‐200 mm^3. V = L×W^2 × 0.52, where L is the longest diameter, and W is the shortest diameter. Tumor size and body weight were recorded every second or third day. Mouse survival was analyzed using the Kaplan–Meier method.
Single agent or combination treatment was designed as follows: TP‐16 (37.5, 75, 150 mg/kg) or celecoxib (100 mg/kg) was formulated in 0.5% carboxymethylcellulose sodium (CMC‐Na, Sangon Biotech, Shanghai, China) and administered via oral gavage daily. In vivo anti‐PD1 antibody (clone RMP1‐14, BioXCell, West Lebanon, NH, USA) and rat IgG2a isotype control (clone 2A3, BioXCell) were diluted in sterile PBS and administered intraperitoneally at a dose of 50 μg twice weekly.

CT26-Luc tumors = assay: CT26-Luc orthotopic colorectal cancer mouse model; assay type: in vivo
mouse bone marrow cells = assay: GM-CSF/IL-6-induced bone marrow MDSC differentiation assay; assay type: cell-based; settings: GM-CSF/IL-6/PGE2, 0.1-10 μM TP-16, 6 days
Protocol: Single‐cell suspensions of mouse BM cells were prepared by filtering femurs and tibias of 6‐week‐old female BALB/c mice through 40‐μm cell strainers (Falcon). These suspensions were treated with red blood cell lysis buffer and replated in conditioned medium. Monocyte differentiation, MDSC induction, and macrophage polarization were analyzed by FACS analysis (BD Biosciences) with FlowJo software.
For the MDSC induction assay, purified BM cells were cultured in RPMI1640 medium stimulated with recombinant mouse GM‐CSF (40 ng/ml, Peprotech) and IL‐6 (40 ng/ml, Peprotech) for 6 days to generate bone marrow‐derived MDSCs (Svoronos et al., 2017); the medium was refreshed every 3 days. Vehicle or PGE2 (10 nM) ± TP‐16 was added simultaneously on day 0 for FACS analysis of BM‐derived MDSCs. For quantitative PCR (qPCR) analysis of MDSCs, differentiated MDSCs were treated with vehicle or PGE2 (10 nM) ± TP‐16 for 12 h.

AODRA1 = AODRA1 (Homo sapiens, UniProt P30542); assay: LANCE Ultra cAMP assay
AODRA1, sequence (P30542 whole entry): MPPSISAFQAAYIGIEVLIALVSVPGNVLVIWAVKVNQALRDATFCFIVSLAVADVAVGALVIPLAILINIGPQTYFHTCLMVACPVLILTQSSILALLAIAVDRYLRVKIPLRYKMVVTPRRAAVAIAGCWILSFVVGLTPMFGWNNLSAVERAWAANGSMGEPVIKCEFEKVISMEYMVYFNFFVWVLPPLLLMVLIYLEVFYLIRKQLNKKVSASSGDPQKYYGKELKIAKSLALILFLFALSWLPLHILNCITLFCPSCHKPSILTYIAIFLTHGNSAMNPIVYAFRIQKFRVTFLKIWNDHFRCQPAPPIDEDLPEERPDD

HTR1B = HTR1B (Homo sapiens, UniProt P28222); assay: LANCE Ultra cAMP assay
HTR1B, sequence (P28222 whole entry): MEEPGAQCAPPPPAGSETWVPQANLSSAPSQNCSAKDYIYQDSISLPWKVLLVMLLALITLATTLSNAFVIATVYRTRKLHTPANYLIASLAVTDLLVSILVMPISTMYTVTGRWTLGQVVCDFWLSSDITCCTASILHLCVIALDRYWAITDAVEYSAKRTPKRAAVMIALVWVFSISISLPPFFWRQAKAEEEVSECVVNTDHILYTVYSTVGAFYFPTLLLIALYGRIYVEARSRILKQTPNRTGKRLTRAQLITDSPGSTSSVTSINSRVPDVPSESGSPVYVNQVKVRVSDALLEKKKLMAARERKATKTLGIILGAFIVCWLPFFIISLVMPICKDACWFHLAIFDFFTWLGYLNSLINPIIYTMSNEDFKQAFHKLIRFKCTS

human EP3, sequence (P43115 1-359 limits assumed): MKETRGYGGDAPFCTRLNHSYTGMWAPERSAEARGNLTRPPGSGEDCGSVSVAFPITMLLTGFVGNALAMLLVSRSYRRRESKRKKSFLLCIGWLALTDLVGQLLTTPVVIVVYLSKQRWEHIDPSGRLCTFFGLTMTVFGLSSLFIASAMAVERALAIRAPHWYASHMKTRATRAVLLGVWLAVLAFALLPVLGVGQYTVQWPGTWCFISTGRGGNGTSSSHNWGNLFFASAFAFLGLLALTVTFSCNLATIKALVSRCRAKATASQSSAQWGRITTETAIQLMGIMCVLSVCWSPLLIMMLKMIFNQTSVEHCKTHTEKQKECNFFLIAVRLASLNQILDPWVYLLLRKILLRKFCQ
T1 sequence (P07550 whole entry, species assumed): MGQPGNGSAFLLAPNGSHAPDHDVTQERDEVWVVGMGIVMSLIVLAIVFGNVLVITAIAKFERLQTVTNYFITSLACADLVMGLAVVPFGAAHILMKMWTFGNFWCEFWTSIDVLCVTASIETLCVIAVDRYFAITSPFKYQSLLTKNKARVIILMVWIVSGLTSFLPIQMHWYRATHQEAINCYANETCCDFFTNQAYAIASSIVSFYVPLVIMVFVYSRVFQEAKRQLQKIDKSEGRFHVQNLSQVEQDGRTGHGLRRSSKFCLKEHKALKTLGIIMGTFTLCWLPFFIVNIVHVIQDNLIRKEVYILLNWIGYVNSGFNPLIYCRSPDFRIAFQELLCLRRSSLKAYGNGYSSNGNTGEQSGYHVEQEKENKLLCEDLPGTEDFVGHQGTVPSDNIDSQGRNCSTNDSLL

## C[C@H](NC(=O)c1c(Cc2ccc(F)cc2)sc2c1CCOC2)c1ccc(C(=O)O)cc1 [TP-16]
Human EP3
  IC50: > 10 µM
ADRB2
  IC50: > 10 µM
CHRM3
  IC50: > 10 µM
HRH1
  IC50: > 10 µM
OPRM1
  IC50: > 10 µM
Pan02 tumors
  %TGI: 44.0%
CT26-Luc tumors; CT26-Luc orthotopic model
  %TGI: 76.22%
CT26-Luc tumors; at the given doses
  body weight of tumor-bearing mice: no significant change
Mouse bone marrow cells
  PGE2-dependent expansion of both mMDSCs and PMN-MDSCs: significantly inhibited
AODRA1
  IC50: > 10 µM
HTR1B
  IC50: > 10 µM
